Tested on: U87-stb-CXCR4 cells
Assay: In vitro binding/uptake of 64Cu-labeled cyclotides to U87-stb-CXCR4 cells
Format: cell-based, human
Settings: inhibitor at 10 μM

c1cc(CN2CCCNCCNCCCNCC2)ccc1CN1CCCNCCNCCCNCC1 [AMD3100]
Reduction in bound [^64Cu]MCo-CVX-6D in the presence of excess non-radioactive inhibitor: ≈ 30%
